Assay results reported in patent publication US9757477B2, “Imaging brown adipose tissue with curcumin derivatives” (The General Hospital Corporation, priority 2013, dated 2017).

System: interscapular BAT
Experiment: Monitoring interscapular BAT mass change in STZ-induced diabetic mice
Format: in vivo, Balb/c mice
Description: Monitoring was performed as follows. Two-month old Balb/c mice (n=5) were injected with STZ (80 mg/kg) for 7 days. When blood glucose levels reached 250 mg/dL on two consecutive days, mice were subjected to NIR imaging with CRANAD-29. Before imaging, the fur around the interscapular area was removed. Images were acquired at pre-injection, as well as 2- and 4-hours after i.v. injection. After imaging, mice were sacrificed, BAT from both groups was dissected, and weighted, and the linear correlation was established between in vivo fluorescence signal and weight of the dissected BATs. The same imaging procedure was conducted with the control group injected with the same volume of saline for 7 days (n=5).

## F[B-]1(F)OC(/C=C/c2cc3c4c(c2)CCCN4CCC3)=CC(/C=C/c2cc3c4c(c2)CCCN4CCC3)=[O+]1 [CRANAD-29]
STZ 80 mg/kg for 7 days, CRANAD-29 i.v.
  fluorescence signal from diabetic mice vs control group: significantly lower
STZ-treated and normal animals
  correlation between BAT mass and fluorescence signal: excellent direct correlation
